From patent US20080261811A1, “Synergistic Mixtures Exhibiting Insecticidal and Fungicidal Action” (Bayer CropScience AG, priority 2004, published 2008)

Legend:
Phaedon cochleariae = Phaedon cochleariae larvae test (cabbage leaf dip); type: in vivo; conditions: for Kill in % after 6 days: Table B2; for Kill in % after 4 days: Table B1
From the text: (§1) The expected activity for a given combination of two active compounds can be calculated (cf. COLBY, S. R.; “Calculating Synergistic and Antagonistic Responses of Herbicide Combinations”, Weeds 15, pages 20-22, 1967):
(§2) if • X=the kill rate, expressed in % of the untreated control, when employing active compound A at an application rate of m ppm, • Y=the kill rate, expressed in % of the untreated control, when employing active compound B at an application rate of n ppm, • E=the kill rate, expressed in % of the untreated control, when employing active compounds A and B at application rates of m and n ppm, then
(§3) If the actual insecticidal kill rate is higher than the calculated one, the kill rates of the combination are superadditive, i.e. a synergistic effect is present. In this case, the kill rate that is actually observed has to be higher than the value, calculated using the formula above, for the expected kill rate (E).
(§4) To produce a suitable preparation of active compound, 1 part by weight of active compound is mixed with the stated amounts of solvent and emulsifier, and the concentrate is diluted with emulsifier-containing water to the desired concentration.
Cabbage leaves (Brassica oleracea) are treated by being dipped into the preparation of active compound of the desired concentration and populated with larvae of the mustard beetle (Phaedon cochleariae) while the leaves are still moist.
After the desired period of time, the kill in % is determined. 100% means that all beetle larvae have been killed; 0% means that none of the beetle larvae have been killed. The determined kill rates are entered into Colby's formula.

Myzus persicae = Myzus persicae test (cabbage leaf dip); type: in vivo; conditions: for Kill in % after 6 days: Table A2; for Kill in % after 1 day: Table A1
From the text: as §1, §2, §3, §4
Cabbage leaves (Brassica oleracea) which are heavily infested by the green peach aphid (Myzus persicae) are treated by being dipped into the preparation of active compound of the desired concentration.
After the desired period of time, the kill in % is determined. 100% means that all aphids have been killed; 0% means that none of the aphids have been killed. The determined kill rates are entered into Colby's formula.

In the case of `COC(=O)C(C)N(C(=O)Cc1ccccc1)c1c(C)cccc1C` (stereo not shown) [benalaxyl], the “Kill in % after 6 days” value (Phaedon cochleariae; 500 ppm) is reported as 0%.

In the case of `COC(=O)[C@@H](C)N(C(=O)Cc1ccccc1)c1c(C)cccc1C` [benalaxyl M, methyl N-(phenylacetyl)-N-(2,6-xylyl)-D-alaninate], the “Kill in % after 6 days” value (Myzus persicae; 500 ppm) is reported as 0% and the “Kill in % after 6 days” value (Phaedon cochleariae; 500 ppm) is reported as 0%.

In the case of `COCC(=O)N(c1c(C)cccc1C)[C@H](C)C(=O)OC` [metalaxyl M], the “Kill in % after 1 day” value (Myzus persicae; 500 ppm) is reported as 0% and the “Kill in % after 4 days” value (Phaedon cochleariae; 500 ppm) is reported as 0%.

In the case of `CN/C(=N\[N+](=O)[O-])NCc1cnc(Cl)s1` [clothianidin], the “Kill in % after 1 day” value (Myzus persicae; 0.8 ppm) is reported as 45%, the “Kill in % after 6 days” value (Myzus persicae; 0.8 ppm) is reported as 35% and the “Kill in % after 4 days” value (Phaedon cochleariae; 4 ppm) is reported as 40%. For the same compound, the “Kill in % after 6 days” value (Phaedon cochleariae; 4 ppm) was 60%.

`COCC(=O)N(c1c(C)cccc1C)C(C)C(=O)OC` (stereo not shown) [metalaxyl] was tested, and the “Kill in % after 1 day” value (Myzus persicae; 500 ppm) was 0%.
